Measurements from US12091425B2 (AMGEN INC., priority 2016, dated 2024).

molecular target: T1, Mcl-1/Bim interaction, recombinant human Mcl-1 (171-327) (Homo sapiens, UniProt Q07820); experiment: Cell free Mcl-1: Bim Affinity Assay (Mcl-1 HTRF); assay type: binding; conditions: cell free Mcl-1:Bim TR-FRET, recombinant human Mcl-1 (171-327)
T1 construct: made in house
Summary of the method: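 Read-out is time-resolved FRET after overnight incubation, using a biotin-labelled peptide from human Bim (51-76) as the binding partner; IC50 was derived from competition curves.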

T1 sequence (Q07820 171-327): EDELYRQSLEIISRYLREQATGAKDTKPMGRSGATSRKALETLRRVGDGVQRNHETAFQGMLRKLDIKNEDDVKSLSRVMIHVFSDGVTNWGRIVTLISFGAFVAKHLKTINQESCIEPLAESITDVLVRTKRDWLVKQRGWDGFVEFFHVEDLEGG

SMILES | IC50
O=C1NS(=O)(=O)CCCC[C@@H](O)[C@H](O)[C@@H]2CC[C@H]2CN2C[C@@]3(CCCc4cc(Cl)ccc43)COc3ccc1cc32 (single isomer, unassigned) [Example 853, (1S,3′R,6′R,7′R,8′R)-6-chloro-7′,8′-dihydroxy-3,4-dihydro-2H,15′H-spiro[naphthalene-1,22′-[20]oxa[13]thia[1,14]diazatetracyclo[14.7.2.0^3,6.0^19,24]pentacosa [16,18,24]trien]-15′-one 13′,13′-dioxide or (1S,3′R,6′R,7′S,8′S)-6-chloro-7′,8′-dihydroxy-3,4-dihydro-2H,15′H-spiro[naphthalene-1,22′-[20]oxa[13]thia[1,14]diazatetracyclo[14.7.2.0^3,6.0^19,24]pentacosa [16,18,24]trien]-15′-one 13′,13′-dioxide] | 11.7 nM
O=C1NS(=O)(=O)CCCCC(O)C(O)C2CCC2CN2CC3(CCCc4cc(Cl)ccc43)COc3ccc1cc32 (single isomer, unassigned) [Example 857, (1S,3′R,6′R,7′R,8′R)-6-chloro-7′,8′-dihydroxy-3,4-dihydro-2H,15′H-spiro[naphthalene-1,22′-[20]oxa[13]thia[1,14]diazatetracyclo[14.7.2.0^3,6.0^19,24]pentacosa [16,18,24]trien]-15′-one 13′,13′-dioxide or (1S,3′R,6′R,7′S,8′S)-6-chloro-7′,8′-dihydroxy-3,4-dihydro-2H,15′H-spiro[naphthalene-1,22′-[20]oxa[13]thia[1,14]diazatetracyclo[14.7.2.0^3,6.0^19,24]pentacosa [16,18,24]trien]-15′-one 13′,13′-dioxide] | 8.46 nM
CC1COCCC(O)C2CCC2CN2CC3(CCCc4cc(Cl)ccc43)COc3ccc(cc32)C(=O)NS1(=O)=O (single isomer, unassigned) [Example 861] | 1.59 nM
O=C1NS(=O)(=O)CCOC[C@@H](O)[C@@H]2CC[C@H]2CN2C[C@@]3(CCCc4cc(Cl)ccc43)COc3ccc1cc32 (single isomer, unassigned) [Example 866, (3R,6R,7S,21S)-6′-chloro-7-hydroxy-3′,4′-dihydro-2′H,14H-spiro[9,19-dioxa-12-thia-1,13-diazatetracyclo[13.7.2.0^3,6.0^18,23]tetracosa-15,17,23-triene-21,1′-naphthalen]-14-one 12,12-dioxide or (3R,6R,7R,21S)-6′-chloro-7-hydroxy-3′,4′-dihydro-2′H,14H-spiro[9,19-dioxa-12-thia-1,13-diazatetracyclo[13.7.2.0^3,6.0^18,23]tetracosa-15,17,23-triene-21,1′-naphthalen]-14-one 12,12-dioxide] | 9.53 nM
O=C1NS(=O)(=O)CCCC[C@H](O)C[C@@H]2CC[C@H]2CN2C[C@@]3(CCCc4cc(Cl)ccc43)COc3ccc1cc32 (single isomer, unassigned) [Example 867, (1S,3′R,6′S,8′S)-6-chloro-8′-hydroxy-3,4-dihydro-2H,15′H-spiro[naphthalene-1,22′-[20]oxa[13]thia[1,14]diazatetracyclo[14.7.2.0^3,6.0^19,24]pentacosa[16,18,24]trien]-15′-one 13′,13′-dioxide or (1S,3′R,6′S,8′R)-6-chloro-8′-hydroxy-3,4-dihydro-2H,15′H-spiro[naphthalene-1,22′-[20]oxa[13]thia[1,14]diazatetracyclo[14.7.2.0^3,6.0^19,24]pentacosa[16,18,24]trien]-15′-one 13′,13′-dioxide] | 6.81 nM
O=C1NS(=O)(=O)CCCOC[C@H](O)[C@@H]2CC[C@H]2CN2C[C@@]3(CCCc4cc(Cl)ccc43)COc3ccc1cc32 (single isomer, unassigned) [Example 870, (3R,6R,7R,22S)-6′-chloro-7-hydroxy-3′,4′-dihydro-2′H,15H-spiro[9,20-dioxa-13-thia-1,14-diazatetracyclo[14.7.2.0^3,6.0^19,24]pentacosa-16,18,24-triene-22,1′-naphthalen]-15-one 13,13-dioxide or (3R,6R,7S,22S)-6′-chloro-7-hydroxy-3′,4′-dihydro-2′H,15H-spiro[9,20-dioxa-13-thia-1,14-diazatetra-cyclo[14.7.2.0^3,6.0^19,24]pentacosa-16,18,24-triene-22,1′-naphthalen]-15-one 13,13-dioxide] | 8.26 nM
C[C@@H]1C[C@@H]2C[C@@H](O1)[C@@H]1CC[C@H]1CN1C[C@@]3(CCCc4cc(Cl)ccc43)COc3ccc(cc31)C(=O)NS(=O)(=O)CCO2 (single isomer, unassigned) [Example 876] | 18.3 nM
C=C1[C@@H](O)[C@H](O)CC[C@@H](CC)S(=O)(=O)NC(=O)c2ccc3c(c2)N(C[C@@H]2CC[C@@H]12)C[C@@]1(CCCc2cc(Cl)ccc21)CO3 (single isomer, unassigned) [Example 877] | 26.2 nM
O=C1NS(=O)(=O)CCCCC(O)CC2CCC2CN2CC3(CCCc4cc(Cl)ccc43)COc3ccc1cc32 (single isomer, unassigned) [Example 881, (1S,3′R,6′S,8′S)-6-chloro-8′-hydroxy-3,4-dihydro-2H,15′H-spiro[naphthalene-1,22′-[20]oxa[13]thia[1,14]diazatetracyclo[14.7.2.0^3,6.0^19,24]pentacosa[16,18,24]trien]-15′-one 13′,13′-dioxide or (1S,3′R,6′S,8′R)-6-chloro-8′-hydroxy-3,4-dihydro-2H,15′H-spiro[naphthalene-1,22′-[20]oxa[13]thia[1,14]diazatetracyclo[14.7.2.0^3,6.0^19,24]pentacosa[16,18,24]trien]-15′-one 13′,13′-dioxide] | 22.2 nM
O=C1NS(=O)(=O)CC/C=C\[C@@H](O)C[C@@H]2CC[C@H]2CN2C[C@@]3(CCCc4cc(Cl)ccc43)COc3ccc1cc32 (single isomer, unassigned) [Example 883, (1S,3′R,6′S,8′S,9′Z)-6-chloro-8′-hydroxy-3,4-dihydro-2H,15′H-spiro[naphthalene-1,22′[20]oxa[13]thia[1,14]diazatetracyclo[14.7.2.0^3,6.0^19,24]pentacosa[9,16,18,24]tetraen]-15′-one 13′,13′-dioxide or (1S,3′R,6′S,8′R,9′Z)-6-chloro-8′-hydroxy-3,4-dihydro-2H,15′H-spiro[naphthalene-1,22′-[20]oxa[13]thia[1,14]diazatetracyclo[14.7.2.0^3,6.0^19,24]pentacosa [9,16,18,24]tetraen]-15′-one 13′,13′-dioxide] | 48.5 nM
O=C1NS(=O)(=O)CC/C=C/[C@H](O)C[C@@H]2CC[C@H]2CN2C[C@@]3(CCCc4cc(Cl)ccc43)COc3ccc1cc32 (single isomer, unassigned) [Example 884, (1S,3′R,6′S,8′R,9′E)-6-chloro-8′-hydroxy-3,4-dihydro-2H,15′H-spiro[naphthalene-1,22′-[20]oxa[13]thia[1,14]diazatetracyclo[14.7.2.0^3,6.0^19,24]pentacosa [9,16,18,24]tetraen]-15′-one 13′,13′-dioxide or (1S,3′R,6′S,8′S,9′E)-6-chloro-8′-hydroxy-3,4-dihydro-2H,15′H-spiro[naphthalene-1,22′-[20]oxa[13]thia[1,14]diazatetracyclo[14.7.2.0^3,6.0^19,24]pentacosa [9,16,18,24]tetraen]-15′-one 13′,13′-dioxide] | 1.29 nM
